Measured values reported in patent publication US20240392055A1, “UV/HEVL-FILTERING SILICONE HYDROGEL CONTACT LENSES” (Alcon Inc., priority 2023, published 2024).
≈ marks a conversion by molar mass, not a printed value.

Columns and labels:
[1] = Absorption edge of visible light photoinitiators; format: physicochemical
Source text: Table 5 provides information about the photoinitiators used in this example.

[2] = Solubility of photoinitiator in lens formulation; format: physicochemical
Method: Four lens formulations without HEVL-absorbing benzotriazole-containing vinylic monomers are prepared to have the following compositions shown in Table 6. TTMB-Sn is not soluble in the formulation at room temperature but is soluble at 40° C. So, the photo-rheology experiment is conducted at 40° C. for this photoinitiator instead of the typical 25° C. (for other three photoinitiators).

[3] = UV/visible absorption of dilute monomer solutions (absorption peak); format: physicochemical; details: HEVL absorption peak; dilute solution in PrOH
[4] = Solubility of HEVL-absorbing vinylic monomers in 1-propanol; format: physicochemical
Source text: It is also reported that there are correlations between lower melting points and compound solubility (Bathori, N. B. Acta Cryst., 2014, A70, C990). Changing the R group from —Cl to —CF3 should both shift the absorbance due to a greater electron withdrawing capability, and increase the solubility by reducing the ability of the compound to crystalize due to the bulky —CF3 group. […] UV23 would seem to be a good candidate because the —CF3 group further red shifts the absorbance and the solubility is much improved.

[5] = empirical substituent parameter of R group on benzotriazole ring; cited from earlier work

Structure (SMILES)	Abs. edge (nm) [1] [nm]	Absorption Peak (nm) [3] [nm]	Solubility in PrOH [4] [µg/mL]	σpara [5]	also measured
C[CH2][Ge]([CH2]C)([C](=O)c1ccc(OC)cc1)[C](=O)c1ccc(OC)cc1 [BMBDE-Ge, Bis(4-methoxybenzoyl)diethylgermanium]	470				
C[CH2][Ge]([CH2]C)([C](=O)c1ccccc1)[C](=O)c1ccccc1 [DBDE-Ge, dibenzoyldiethylgermanium]	480				
CCc1ccccc1[C](=O)[Ge]([C](=O)c1ccccc1CC)([C](=O)c1ccccc1CC)[C](=O)c1ccccc1CC [TEB-Ge, tetrakis(2-ethylbenzoyl)-germanium]	490				
Cc1cc(C)c([C](=O)[Sn]([C](=O)c2c(C)cc(C)cc2C)([C](=O)c2c(C)cc(C)cc2C)[C](=O)c2c(C)cc(C)cc2C)c(C)c1 [TTMB-Sn, tetrakis(2,4,6-trimethylbenzoyl)stannane]	510				solubility in the formulation ([2]; 40° C.): soluble; solubility in the formulation ([2]; room temperature): not soluble
C=CC(=O)OCCCOc1cc(-n2nc3ccc(C(F)(F)F)cc3n2)c(O)c(C(C)(C)C)c1 [UV23, 2-[2′-Hydroxy-3′-tert-butyl-5′-(3′-acryloyloxypropoxy)phenyl]-5-trifluoromethyl-2H-benzotriazole]		418	> 3300	0.54	
C=C(C)C(=O)OCCCOc1cc(-n2nc3ccc(Cl)cc3n2)c(O)c(C(C)(C)C)c1 [UV28, 2-{2′-Hydroxy-3′-tert-butyl-5′-[3′-methacryloyloxypropoxy]phenyl}-5-chloro-2H-benzotriazole]		416	1500 (≈ 3.38 mM)	0.23	
